{
  "source": "patent US20240060133A1",
  "about": "“METHODS FOR IDENTIFICATION AND TREATMENT OF BLEEDING IN ANIMALS” (WASHINGTON STATE UNIVERSITY, priority 2021, published 2024)",
  "key": {"canine plasmin": {"target": "T1, canine plasmin (Canis lupus familiaris, UniProt P80009)", "T1 construct": "purchased Molecular Innovation, Novi, MI DPLM", "T1 sequence (P80009 104-333 limits assumed)": "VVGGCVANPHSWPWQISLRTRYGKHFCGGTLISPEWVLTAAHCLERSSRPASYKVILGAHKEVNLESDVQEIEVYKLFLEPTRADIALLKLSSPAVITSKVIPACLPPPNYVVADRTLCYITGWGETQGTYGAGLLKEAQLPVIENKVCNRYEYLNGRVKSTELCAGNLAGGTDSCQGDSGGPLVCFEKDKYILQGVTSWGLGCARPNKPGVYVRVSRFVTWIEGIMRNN", "T1 sequence (P80009 with tags, fused parts or gaps partner limits assumed)": "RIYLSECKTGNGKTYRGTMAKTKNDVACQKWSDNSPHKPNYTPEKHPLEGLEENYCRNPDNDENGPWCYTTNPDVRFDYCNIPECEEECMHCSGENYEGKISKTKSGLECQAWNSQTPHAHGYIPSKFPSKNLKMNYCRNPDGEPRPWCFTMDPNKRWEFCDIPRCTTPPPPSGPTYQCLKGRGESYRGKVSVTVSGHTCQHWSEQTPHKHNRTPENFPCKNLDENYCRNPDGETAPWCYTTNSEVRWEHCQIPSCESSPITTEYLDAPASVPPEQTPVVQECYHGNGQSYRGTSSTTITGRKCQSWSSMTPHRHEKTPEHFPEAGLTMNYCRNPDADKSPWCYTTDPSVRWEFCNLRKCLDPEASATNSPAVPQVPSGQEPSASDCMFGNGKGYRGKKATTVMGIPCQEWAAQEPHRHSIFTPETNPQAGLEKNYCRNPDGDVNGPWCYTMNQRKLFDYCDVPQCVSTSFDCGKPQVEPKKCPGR", "assay": "Plasmin inhibition assay (microplate-based colorimetric kinetic assay)", "type": "biochemical", "conditions": "substrate D-VLK-pNA, 37° C., preliminary studies, FIG. 1, read-out: IC50, concentration-dependent inhibition of plasmin activity", "protocol": "A microplate-based colorimetric kinetic assay was developed and validated to measure the potency of inhibition of canine plasmin by plasma based on a previously published method. Briefly, 2 μL of canine plasma diluted to 50 μL in phosphate-buffered saline (PBS) was added on ice to 96-well UV clear nonbinding plates (Cat. #655901, Greiner Bio-One, Monroe, NC). Then, 50 μL of canine plasmin (Cat. #DPLM, Molecular Innovation, Novi, MI) at 100 nM concentration in 50 μL PBS was added, mixed by pipetting, and incubated at 37° C. for 5 min. To this, 100 μL of prewarmed plasmin substrate (D-VLK-pNA, Molecular Innovation, Novi, MI) at 200 μM concentration in PBS was added, mixed, and immediately placed in a colorimetric plate reader (SpectraMax i3, Molecular Devices, San Jose, CA) set at 37° C. Absorbance at 405 nm was then monitored in each well over the next 5 minutes. Plasmin hydrolysis activity for each well was calculated from the fitted linear slope of the absorbance versus time curve over 5 minutes.\nPreliminary studies confirmed concentration-dependent inhibition of plasmin activity by the antifibrinolytic aprotinin (Cat. #A1153, Sigma Aldrich, St Louis, MO) with an IC50 of approximately 500 nM (see FIG. 1). Plasma collected in sodium citrate and pooled from 2 male and 2 female beagle dogs was obtained from a commercial vendor (Biochemed Services, Winchester, VA). […]"}, "[1]": {"test_system": "delayed postoperative bleeding in greyhounds", "conditions": "46 greyhounds, limb amputation for osteosarcoma, after introduction of the prophylactic treatment; cited from earlier work"}, "[2]": {"test_system": "delayed postoperative bleeding in Scottish deerhounds", "assay": "Scottish deerhound cases with delayed postoperative bleeding (health survey and veterinary records)", "type": "in vivo, Scottish deerhound dogs", "conditions": "for hematocrit and platelet counts: SDH-2, 750 mg intravenous infusion; for hematocrit: SDH-4, continuous intravenous infusion plus transfusions of whole blood and plasma", "from_the_text": "For the instant example, Scottish deerhounds with delayed postoperative bleeding and matched controls were identified through a survey distributed to members of the Scottish Deerhound Club of America. A subsection of this survey requested information regarding the surgical history of the dogs, occurrence of postoperative bleeding complications, and perioperative administration of antifibrinolytic drugs (EACA or tranexamic acid). A diagnosis of delayed postoperative bleeding, defined as unexpected bleeding from a surgical wound starting 1 to 4 days after the procedure, was based on review of the owner's description of the event, the veterinary medical record (if available), and therapeutic response to administration of antifibrinolytic drugs (if used). Dogs were excluded if the bleeding event occurred on the same day of surgery, or after more than 4 days following surgery.\nThe instant example utilizes the methods described in Example 1 to identify delayed postoperative bleeding cases in canines and controls. Completed health surveys from the owners of 260 Scottish deerhounds were reviewed to identify delayed postoperative bleeding cases and controls. Of the original 260 dogs evaluated, 105 dogs (40%) were identified that had undergone at least one surgical procedure, while 21 dogs (8%) had received two or more surgeries. Nine of 105 dogs (9%) with a surgical history were reported to have experienced postoperative bleeding and/or excessive bruising at least once after a surgical procedure. Of these, bleeding into the abdomen was first diagnosed within 8 hours after surgery in two dogs, while bleeding and/or bruising was not evident until at least the morning after surgery in the remaining 7 dogs. These latter 7 dogs were considered delayed postoperative bleeding cases and all had DNA samples available for case-control analysis. Of the 96 dogs that had undergone surgery without evidence for postoperative bleeding, 25 dogs (26%) had received prophylactic treatment with EACA, while 71 dogs (74%) had not received any antifibrinolytic drug. These latter 71 dogs were considered delayed postoperative bleeding controls. Of the 71 control dogs, 55 dogs had DNA samples available for case-control genetic analysis.\nCase information for the seven dogs (SDH-1 to SDH-7) that met the inclusion/exclusion criteria for delayed postoperative bleeding are shown in Table 1."}, "[3]": {"conditions": "SDH-2, Day 1-evening (after aminocaproic acid), 750 mg intravenous infusion"}, "[4]": {"conditions": "prophylactic antifibrinolytic given, individual dogs SDH-3 and SDH-6"}},
  "data": [
    {"compound": "aprotinin", "values": [
      {"measurement": "IC50", "setting": "canine plasmin", "value": "~500", "unit": "nM"}
    ]},
    {"compound": "NCCCCCC(=O)O", "note": "[EACA, 6-aminohexanoic acid]", "values": [
      {"measurement": "incidence of bleeding", "setting": "[1]", "value": 16, "unit": "%"},
      {"measurement": "hematocrit and platelet counts", "setting": "[2]; by Day 5", "value": "within their normal range"},
      {"measurement": "hematocrit and platelet counts", "setting": "[2]; next morning (Day 2)", "value": "significantly increased"},
      {"measurement": "Hematocrit (%)", "setting": "[2]; [3]", "value": 34.4, "unit": "%"},
      {"measurement": "Platelet count (×10^9/L)", "setting": "[2]; [3]", "value": "31 ×10^9/L"},
      {"measurement": "Hematocrit (%)", "setting": "[2]; SDH-2, Day 2", "value": 41.7, "unit": "%"},
      {"measurement": "Platelet count (×10^9/L)", "setting": "[2]; SDH-2, Day 2", "value": "125 ×10^9/L"},
      {"measurement": "Hematocrit (%)", "setting": "[2]; SDH-2, Day 5", "value": 51.9, "unit": "%"},
      {"measurement": "Platelet count (×10^9/L)", "setting": "[2]; SDH-2, Day 5", "value": "371 ×10^9/L"},
      {"measurement": "Hematocrit (%)", "setting": "[2]; SDH-2, Week 5", "value": 50.4, "unit": "%"},
      {"measurement": "Platelet count (×10^9/L)", "setting": "[2]; SDH-2, Week 5", "value": "276 ×10^9/L"},
      {"measurement": "bleeding after therapeutic treatment", "setting": "[2]; SDH-3, castration, 500 mg orally every 8 hours for 5 days, with fluids, antibiotics, vitamin K", "value": "No further bleeding was observed"},
      {"measurement": "bruising or delayed postoperative bleeding after prophylactic treatment", "setting": "[2]; SDH-3, splenectomy, 500 mg intravenous infusion during procedure then 500 mg oral every 8 hours for 5 days", "value": "No excessive bruising or delayed postoperative bleeding were observed"},
      {"measurement": "hematocrit", "setting": "[2]; after one month", "value": 60, "unit": "%"},
      {"measurement": "hematocrit", "setting": "[2]; at discharge after 5 days (15% before)", "value": 36, "unit": "%"},
      {"measurement": "bleeding after therapeutic treatment", "setting": "[2]; SDH-6, sebaceous cyst removal, orally administered after bleeding", "value": "the bleeding resolved"},
      {"measurement": "postoperative bleeding or bruising after prophylactic treatment", "setting": "[2]; SDH-6, skin abscess surgery, pre-operative oral dose", "value": "No postoperative bleeding or bruising was observed"},
      {"measurement": "bleeding after drug administration", "setting": "[2]; dogs with delayed postoperative bleeding, EACA oral or injectable", "value": "stopped within hours"},
      {"measurement": "Delayed bleeding?", "setting": "[2]; [4]", "value": "No"},
      {"measurement": "Outcome", "setting": "[2]; [4]", "value": "No complications"},
      {"measurement": "Outcome", "setting": "[2]; therapeutic antifibrinolytic given after delayed bleeding, individual dogs SDH-2 to SDH-6", "value": "Responded to antifibrinolytic"}
    ]}
  ]
}
